Measurements: patent US8044018B2, “Reagents and methods for smooth muscle therapies” (Arizona Board of Regents, priority 2008, dated 2011)
Non-standard residues stand in square brackets, D forms with d. No end group written: not given here. *: point of attachment. FITC = O=C1OC2(c3ccc(O)cc3Oc3cc(O)ccc32)c2ccc(NC(=S)*)cc21; Fmoc = O=C(OCC1c2ccccc2-c2ccccc21)*; pS = N[C@@H](COP(=O)(O)O)C(=O)O; βAla = NCCC(=O)O

How the values were obtained:
[1] = system: bovine carotid artery smooth muscle; assay: Muscle bath: serotonin pre-contracted strips of bovine carotid artery, denuded of endothelium; settings: cumulative doses added every 10 minutes; n=5
Description: Transverse strips of bovine carotid artery smooth muscle, denuded of endothelium, were suspended in a muscle bath containing bicarbonate buffer (120 mM NaCl, 4.7 mM KCl, 1.0 mM MgSO4, 1.0 mM NaH2PO4, 10 mM glucose, 1.5 mM CaCl2, and 25 mM […], pH 7.4), equilibrated with 95% O2/5% CO2, at 37° C. at one gram of tension for 2 hours. The muscles were pre-contracted with serotonin ([…] for 10 minutes) and cumulative doses of FITC-phosphoHSP20-TAT, FITC-scrambled phosphoHSP20-TAT (FITC-NH2-β[…]*LWALGRPLA-COOH, open circles) (SEQ ID NO:305), or FITC-TAT (FITC-NH2-β[…], closed triangles) (SEQ ID NO:306) were added every 10 minutes. The force is depicted as a percentage of the maximal serotonin contraction (n=5, *=p<0.05 compared to 0 peptide added). Representative strips were fixed in 4% paraformaldehyde and examined under fluorescence microscopy (40× magnification).

[2] = system: Rat aortic smooth muscle cells; assay: LPA-induced actin fiber formation, phalloidin staining and confocal microscopy; assay type: cell-based
Description: Rat aortic smooth muscle cells were treated with lyophosphatidic acid (LPA) in the presence and absence of FITC-TAT-pHSP20 (FITC-NH2-β[…]*APLPGLK-COOH, 50 uM) (SEQ ID NO:307) Lysophosphatidic acid (LPA) is a substance which promotes actin fiber formation.
The cells were fixed and stained with phalloidin and images were obtained with confocal microscopy. […] These studies confirm that HSP20 has a direct role in modulating actin fiber formation.

Mesangial cells = assay: Wrinkle assay: mesangial cells on silicone substrata treated with phosphopeptide; assay type: cell-based; settings: 50 μM peptide; plated 48 hours in serum; phase contrast microscopy; n=10
Description: Mesangial cells were plated on a silicone substrata in the presence of serum and after 48 hours the cells were treated with the FITC-TAT-HSP20 phosphopeptide (50 μM). The number of wrinkles under the cells was determined at the time points indicated using phase contrast microscopy (n=10, *=p<0.05 compared to time 0). Results of this Experiment are illustrated in FIG. 2.

[3] = system: Bovine aortic endothelial cells; assay: Focal adhesion disassembly, interference reflection microscopy; assay type: cell-based; settings: HSP20 peptides 10 uM for 30 minutes; serum starved one hour
Description: Bovine aortic endothelial cells were plated on glass coverslips (80K-100K cells) in DMEM plus 10% FBS over night (24 wells plate). The cells were serum starved (no serum) for one hour and incubated in the presence of the peptide analogues of HSP20 [NH2-βAYARRAAARQARAWLRRAS*APLPGLK-COOH-pHSP20 (10 uM) (SEQ ID NO:307) or scrambled analogues of HSP20 [NH2-βAYARRAAARQARAPRKS*LWALGRPLA-COOH-scHSP20 (10 uM)] (SEQ ID NO:308) for 30 minutes. The cells were fixed with 3% glutaraldehyde and the number of focal adhesions was detected with interference reflection microscopy. The Hep I peptide was used as a positive control. This peptide binds to the heparin binding site of thrombospondin in induces focal adhesion disassembly. […] The results are illustrated in FIG. 7.

A10 cells = assay: Serum-induced proliferation, cell counts; assay type: cell-based; settings: 50 μM in 10% FBS; 24 hours; serum starved 3 days beforehand
Description: A10 cells were serum starved for 3 days. The cells were then treated with media containing 10% fetal bovine serum, PTD-pHSP20 (NH2-βAYARRAAARQARAWLRRAS*APLPGLK-COOH (SEQ ID NO:307), or PTD-scrambled-pHSP20 (NH2-βAYARRAAARQARAPRKS*LWALGRPLA-COOH (SEQ ID NO:308) (50 μM). After 24 hours cell counts were performed. The number of cells per well in the serum starved plates averaged […] (+/−7.4) compared to 276+/−6.1 in wells containing 10% fetal bovine serum (FBS). In the presence of FBS, the phosphopeptide analogues of HSP20 containing a transduction domain inhibited of smooth muscle proliferation, 149+/−14.6 compared to transduction of the scrambled phosphopeptide analogue of HSP20 (242.3+/−15.3 cells/well). The results of these experiments are illustrated in FIG. 9.

rabbit aorta = assay: Muscle bath: rabbit aorta rings pre-contracted with norepinephrine, endothelium not denuded; settings: pre-contracted with norepinephrine 10^−7 M; for relaxation and inhibition of spasm: peptides retained the Fmoc moiety
Description: Rings of rabbit aorta in which the endothelium was not denuded, were suspended in a muscle bath containing bicarbonate buffer (120 mM NaCl, 4.7 mM KCl, 1.0 mM MgSO4, 1.0 mM NaH2PO4, 10 mM glucose, 1.5 mM CaCl2, and 25 mM […], pH 7.4), equilibrated with 95% O2/5% CO2, at 37° C. at one gram of tension for 2 hours. The rings were pre-contracted with norepinephrine (10^−7 M) and treated with RRRRRRApSAPLP (SEQ ID NO:309) or RRRRWLRRApSAPLP (SEQ ID NO:310). […] The peptides used were prepared by Fmoc-based peptide synthesis, and the peptides retained the Fmoc moiety at the amino terminus of the peptide.

FITC-NH2-βAGGGGYGRKKRRQRRR ({FITC}-[βAla]GGGGYGRKKRRQRRR) [FITC-TAT, FITC-labelled TAT transduction domain alone, control]
contractile force as percentage of the maximal serotonin contraction [1]: no significant effect

FITC-NH2-βAGGGGYGRKKRRQRRRPRKS*LWALGRPLA-COOH ({FITC}-[βAla]GGGGYGRKKRRQRRRPRK[pS]LWALGRPLA-OH) [FITC-scrambled phosphoHSP20-TAT]
contractile force as percentage of the maximal serotonin contraction [1]: no significant effect

Lysophosphatidic acid [LPA, reference compound]
actin stress fiber formation ([2]; LPA alone): robust actin stress fiber formation

NH2-βAGGGGYGRKKRRQRRRWLRRAS*APLPGLK-COOH ([βAla]GGGGYGRKKRRQRRRWLRRA[pS]APLPGLK-OH; not fully specified (N-terminus); printed as NH2-βAGGGGYGRKKRRQRRRWLRRAS*APLPGLK-COOH; also: FITC label, position not given here) [FITC-TAT-HSP20]
number of wrinkles under the cells (relaxation of the cells) (Mesangial cells): time dependent loss of wrinkles
contractile force as percentage of the maximal serotonin contraction [1]: dose dependent decrease
central actin stress fibers ([2]; LPA in the presence of peptide, 50 uM): loss of central actin stress fibers

NH2-βAYARRAAARQARAPRKS*LWALGRPLA-COOH (AYARRAAARQARAPRKSLWALGRPLA; HELM PEPTIDE1{[bAla].Y.A.R.R.A.A.A.R.Q.A.R.A.P.R.K.[O=C([C@H](COP(=O)(O)O)N[*:1])[*:2]].L.W.A.L.G.R.P.L.A}$$$$V2.0; SMILES CC(C)C[C@H](NC(=O)[C@H](C)NC(=O)[C@H](Cc1c[nH]c2ccccc12)NC(=O)[C@H](CC(C)C)NC(=O)[C@H](COP(=O)(O)O)NC(=O)[C@H](CCCCN)NC(=O)[C@H](CCCNC(=N)N)NC(=O)[C@@H]1CCCN1C(=O)[C@H](C)NC(=O)[C@H](CCCNC(=N)N)NC(=O)[C@H](C)NC(=O)[C@H](CCC(N)=O)NC(=O)[C@H](CCCNC(=N)N)NC(=O)[C@H](C)NC(=O)[C@H](C)NC(=O)[C@H](C)NC(=O)[C@H](CCCNC(=N)N)NC(=O)[C@H](CCCNC(=N)N)NC(=O)[C@H](C)NC(=O)[C@H](Cc1ccc(O)cc1)NC(=O)CCN)C(=O)NCC(=O)N[C@@H](CCCNC(=N)N)C(=O)N1CCC[C@H]1C(=O)N[C@@H](CC(C)C)C(=O)N[C@@H](C)C(=O)O) [PTD-scrambled-pHSP20, Scrambled analogue of the HSP20 phosphopeptide with PTD, control, reference compound]
focal adhesion disassembly (number of focal adhesions) [3]: no significant effect
number of cells per well (A10 cells): 242.3+/−15.3 cells/well

RRRRRRApSAPLP (Fmoc-RRRRRRA[pS]APLP)
speed and duration of relaxation compared with the longer peptides (rabbit aorta): relaxation was faster and the muscles remained in a relaxed state for longer
relaxation and inhibition of spasm (rabbit aorta): rapid and complete relaxation and inhibition of spasm

RRRRWLRRApSAPLP (Fmoc-RRRRWLRRA[pS]APLP)
speed and duration of relaxation compared with the longer peptides (rabbit aorta): relaxation was faster and the muscles remained in a relaxed state for longer
relaxation and inhibition of spasm (rabbit aorta): rapid and complete relaxation and inhibition of spasm
